Experimental data reported in EP4190319A1, “PHARMACEUTICAL COMPOSITION COMPRISING MEMANTINE AND CITICOLINE” (Novamedica Limited Liability Company, priority 2020, dated 2022).

Test system: rats
Assay: Morris Water Maze test of long-term memory in the model of global transient cerebral ischemia with ligation of common carotid arteries
Format: in vivo
Protocol: The comparative study of specific pharmacological activity of the pharmaceutical composition proposed in this invention was conducted by comparison with the citicoline mono-preparation on the model of ischemic stroke in rats. For that purpose, a model of global transient cerebral ischemia with ligation of common carotid arteries was selected on the basis of the Handbook on Conducting Pre-Clinical Studies of Therapeutical Agents, ed. by A.N. Mironov. Long-term memory was evaluated with the use of the Morris Water Maze test (Morris R., "J Neurosci Methods", 1984, Vol. 11, No 1. - P. 47-60 [10]). Table. Effect of the preparations under study on long-term memory in rats in the Morris Water Maze test.

`C[N+](C)(C)CCOP(=O)(O)OP(=O)([O-])OC[C@H]1O[C@@H](n2ccc(N)nc2=O)[C@H](O)[C@@H]1O` [Citicoline, 5'-O-[hydroxy({hydroxy[2-(trimethylammonio)ethoxy]phosphoryl}oxy)phosphoryl]cytidine] was tested, and the “Latent period of finding platform” value (mg/kg (citicoline + memantine) 100+0, ischemic stroke model in rats) was 20.4 ± 7.6 s, the “Latent period of finding platform” value (mg/kg (citicoline + memantine) 500+0, ischemic stroke model in rats) was 13.6 ± 3.5 s and the “Latent period of finding platform” value (mg/kg (citicoline + memantine) 1,000+0, ischemic stroke model in rats) was 10.4 ± 3.5 s.
With `CC12CC3CC(C)(C1)CC(N)(C3)C2` [Memantine, 3,5-dimethyladamantan-1-amine] the “Latent period of finding platform” value (mg/kg (citicoline + memantine) 0+2, ischemic stroke model in rats) was 27.1 ± 7.8 s, the “Latent period of finding platform” value (mg/kg (citicoline + memantine) 0+10, ischemic stroke model in rats) was 14.6 ± 5.2 s and the “Latent period of finding platform” value (mg/kg (citicoline + memantine) 0+20, ischemic stroke model in rats) was 9.2 ± 1.2 s.
